Consider 20 molecules from patent US10464922B2, “Metalloenzyme inhibitor compounds” (NQP 1598 LTD., priority 2015, dated 2019).

Molecules are shown by their SMILES. ≈ marks a conversion by molar mass, not a printed value. Where two headings read alike, the source gives them in different places. Some results are limits rather than exact numbers.

For one experiment, the system named is A. fumigatus. Briefly: A. fumigatus MIC at 100% growth inhibition (CLSI M38-A2). In kind it is cell-based, Aspergillus fumigatus. To be noted: Aspergillus fumigatus, read-out: Aspergillus fumigatus MIC. The procedure: A. fumigatus MICs were determined at 100% growth inhibition following CLSI guidelines at a concentration range of 8-0.0078 μg/mL (CLSI M38-A2).

The test system of another experiment is C. albicans (ATCC 90028). The experiment is described as follows: Minimum inhibitory concentration, in vitro broth microdilution assay (CLSI M27-A2). In kind it is cell-based, Candida albicans. To be noted: Candida albicans, ATCC90028, 48 h, read-out: Candida albicans MIC. The method in brief:
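Inoculum of 1×10^3 to 1×10^4 CFU/mL in RPMI-1640+MOPS, exposed to 11 two-fold serial compound concentrations at 2 percent final DMSO, per CLSI M27-A2. After 2 days at 36° C, wells scored visually for growth to give MIC; tested in duplicate.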
Background: Dilution methods test growth across graded concentrations, often in twofold steps.

Where [1] appears, read: 100% growth inhibition, range tested 8-0.0078 μg/mL, values given as ranges.
Where [2] appears, read: ATCC 90028, about 50% growth reduction, 2 days at 36° C., range tested 8-0.0078 μg/mL, values given as ranges.

Broadly, the MIC is the smallest concentration in the dilution series that meets the test's criterion for growth inhibition. For `OC(c1cccc(N2CCN(c3ccc(-c4ccc(C(F)(F)[C@](O)(Cn5cnnn5)c5ccc(F)cc5F)nc4)cc3)CC2)c1)C(F)(F)F` (stereo partly drawn) [Example 86, (2R)-2-(2,4-difluorophenyl)-1,1-difluoro-3-(1H-tetrazol-1-yl)-1-(5-(4-(4-(3-(2,2,2-trifluoro-1-hydroxyethyl)phenyl)piperazin-1-yl)phenyl)pyridin-2-yl) propan-2-ol], the results for the minimum inhibitory concentration (MIC) in the experiment with A. fumigatus (setting [1]) and with C. albicans (ATCC 90028) (setting [2]) were 0.25 to 1 µg/mL (≈ 0.364 to 1.45 µM) and 0.0078 to 0.01 µg/mL (≈ 0.0113 to 0.0145 µM), respectively.
Take `O=c1n(-c2ccc(N3CCN(c4ccc(-c5ccc(C(F)(F)[C@](O)(Cn6cnnn6)c6ccc(F)cc6F)nc5)cc4)CC3)cn2)cnn1CC(F)(F)F` [Example 87, (R)-4-(5-(4-(4-(6-(2-(2,4-difluorophenyl)-1,1-difluoro-2-hydroxy-3-(1H-tetrazol-1-yl)propyl)pyridin-3-yl)phenyl)piperazin-1-yl)pyridin-2-yl)-2-(2,2,2-trifluoroethyl)-2,4-dihydro-3H-1,2,4-triazol-3-one]: the minimal inhibitory concentration (MIC) in the experiment on A. fumigatus (setting [1]) was 0.062 to 0.25 µg/mL (≈ 0.082 to 0.331 µM); with C. albicans (ATCC 90028) (setting [2]), 0.0078 to 0.01 µg/mL (≈ 0.0103 to 0.0132 µM).
In the case of `NC(CC(F)(F)F)C(=O)Nc1ccc(N2CCN(c3ccc(-c4ccc(C(F)(F)[C@](O)(Cn5cnnn5)c5ccc(F)cc5F)nc4)cc3)CC2)cc1` (stereo partly drawn) [Example 88, 2-amino-N-(4-(4-(4-(6-((R)-2-(2,4-difluorophenyl)-1,1-difluoro-2-hydroxy-3-(1H-tetrazol-1-yl)propyl)pyridin-3-yl)phenyl)piperazin-1-yl)phenyl)-4,4,4-trifluorobutanamide], the MIC with A. fumigatus is above 8 µg/mL; with C. albicans (ATCC 90028), 0.01 to 0.1 µg/mL (≈ 0.0134 to 0.134 µM).
`CCC(C(=O)Nc1ccc(N2CCN(c3ccc(-c4ccc(C(F)(F)[C@](O)(Cn5cnnn5)c5ccc(F)cc5F)nc4)cc3)CC2)cc1)C(C)O` (stereo partly drawn) [Example 89, N-(4-(4-(4-(6-((R)-2-(2,4-difluorophenyl)-1,1-difluoro-2-hydroxy-3-(1H-tetrazol-1-yl)propyl)pyridin-3-yl)phenyl)piperazin-1-yl)phenyl)-2-ethyl-3-hydroxybutanamide]: the minimal inhibitory concentration (MIC) lay in the range of 0.25 to 1 µg/mL (≈ 0.348 to 1.39 µM) in the experiment with A. fumigatus (setting [1]) and 0.01 to 0.1 µg/mL (≈ 0.0139 to 0.139 µM) in the experiment with C. albicans (ATCC 90028) (setting [2]).
In the case of `CC(C)(C)Cc1nc2ccc(N3CCN(c4ccc(-c5ccc(C(F)(F)[C@](O)(Cn6cnnn6)c6ccc(F)cc6F)nc5)cc4)CC3)cc2[nH]1` [Example 90, (R)-2-(2,4-difluorophenyl)-1,1-difluoro-1-(5-(4-(4-(2-neopentyl-1H-benzo [d]imidazol-6-yl)piperazin-1-yl)phenyl)pyridin-2-yl)-3-(1H-tetrazol-1-yl) propan-2-ol], the MIC in the experiment on A. fumigatus (setting [1]) is above 8 µg/mL; with C. albicans (ATCC 90028) (setting [2]), 0.0078 to 0.01 µg/mL (≈ 0.0111 to 0.0143 µM).
On to `CC(C)n1ccn(-c2ccc(N3CCN(c4ccc(-c5ccc(C(F)(F)[C@](O)(Cn6cnnn6)c6ccc(F)cc6F)nc5)cc4)CC3)cc2)c1=O` [Example 91, 1-(4-(4-(4-(6-(2-(2,4-difluorophenyl)-1,1-difluoro-2-hydroxy-3-(1H-tetrazol-1-yl)propyl)pyridin-3-yl)phenyl)piperazin-1-yl)phenyl)-3-isopropyl-1,3-dihydro-2H-imidazol-2-one], for which the figures for the minimum inhibitory concentration (MIC) in the experiment on A. fumigatus (setting [1]) and with C. albicans (ATCC 90028) (setting [2]) were 0.25 to 1 µg/mL (≈ 0.35 to 1.4 µM) and 0.0078 to 0.01 µg/mL (≈ 0.0109 to 0.014 µM), respectively.
As to `CC[C@@H]([C@H](C)O)n1cnc(-c2ccc(N3CCN(c4ccc(-c5ccc(C(F)(F)[C@](O)(Cn6cnnn6)c6ccc(F)cc6F)nc5)cc4)CC3)cc2)n1` [Example 92, (2S,3S)-3-(3-(4-(4-(4-(6-(2-(2,4-difluorophenyl)-1,1-difluoro-2-hydroxy-3-(1H-tetrazol-1-yl)propyl)pyridin-3-yl)phenyl)piperazin-1-yl)phenyl)-1H-1,2,4-triazol-1-yl) pentan-2-ol], the minimum inhibitory concentration (MIC) with A. fumigatus (setting [1]) was 0.25 to 1 µg/mL (≈ 0.337 to 1.35 µM); in the experiment with C. albicans (ATCC 90028) (setting [2]) it was 0.0078 to 0.01 µg/mL (≈ 0.0105 to 0.0135 µM).
For `CCC(C(C)O)n1ncn(-c2ccc(N3CCN(c4ccc(-c5ccc(C(F)(F)[C@](O)(Cn6cnnn6)c6ccc(F)cc6F)nc5)cc4)CC3)cc2)c1=O` (stereo partly shown) [Example 93] the same measures were 0.25 to 1 µg/mL (≈ 0.329 to 1.32 µM) and 0.0078 to 0.01 µg/mL (≈ 0.0103 to 0.0132 µM).
For `OC(c1cn(-c2ccc(N3CCN(c4ccc(-c5ccc(C(F)(F)[C@](O)(Cn6cnnn6)c6ccc(F)cc6F)nc5)cc4)CC3)cc2)nn1)C(F)(F)F` (stereo partly drawn) [Example 94, (2R)-2-(2,4-difluorophenyl)-1,1-difluoro-3-(1H-tetrazol-1-yl)-1-(5-(4-(4-(4-(4-(2,2,2-trifluoro-1-hydroxyethyl)-1H-1,2,3-triazol-1-yl)phenyl)piperazin-1-yl)phenyl)pyridin-2-yl) propan-2-ol] the same measures were 0.25 to 1 µg/mL (≈ 0.331 to 1.33 µM) and 0.0078 to 0.01 µg/mL (≈ 0.0103 to 0.0133 µM).
For the molecule `CC[C@@H]([C@H](C)O)n1cc(-c2ccc(N3CCN(c4ccc(-c5ccc(C(F)(F)[C@](O)(Cn6cnnn6)c6ccc(F)cc6F)nc5)cc4)CC3)cc2)nn1` [Example 95, (2S,3S)-3-(4-(4-(4-(4-(6-((R)-2-(2,4-difluorophenyl)-1,1-difluoro-2-hydroxy-3-(1H-tetrazol-1-yl)propyl)pyridin-3-yl)phenyl)piperazin-1-yl)phenyl)-1H-1,2,3-triazol-1-yl) pentan-2-ol], the results for the MIC in the experiment on A. fumigatus (setting [1]) and in the experiment with C. albicans (ATCC 90028) (setting [2]) were 0.25 to 1 µg/mL (≈ 0.337 to 1.35 µM) and 0.0078 to 0.01 µg/mL (≈ 0.0105 to 0.0135 µM), respectively.
For `O=c1n(CC(F)(F)F)ccn1-c1ccc(N2CCN(c3ccc(-c4ccc(C(F)(F)[C@](O)(Cn5cnnn5)c5ccc(F)cc5F)nc4)cc3)CC2)cc1` [Example 96], the results for the MIC in the experiment on A. fumigatus (setting [1]) and in the experiment on C. albicans (ATCC 90028) (setting [2]) were 0.25 to 1 µg/mL (≈ 0.332 to 1.33 µM) and 0.0078 to 0.01 µg/mL (≈ 0.0103 to 0.0133 µM), respectively.
The like results for `CCC(C(C)O)n1ccn(-c2ccc(N3CCN(c4ccc(-c5ccc(C(F)(F)[C@](O)(Cn6cnnn6)c6ccc(F)cc6F)nc5)cc4)CC3)cc2)c1=O` (stereo partly drawn) [Example 97, 1-(4-(4-(4-(6-((R)-2-(2,4-difluorophenyl)-1,1-difluoro-2-hydroxy-3-(1H-tetrazol-1-yl)propyl)pyridin-3-yl)phenyl)piperazin-1-yl)phenyl)-3-(2-hydroxypentan-3-yl)-1,3-dihydro-2H-imidazol-2-one] were, in that order, 0.25 to 1 µg/mL (≈ 0.33 to 1.32 µM) and 0.0078 to 0.01 µg/mL (≈ 0.0103 to 0.0132 µM).
As to `O[C@@](Cn1cnnn1)(c1ccc(F)cc1F)C(F)(F)c1ccc(-c2ccc(N3CCN(c4ccc5ncn(Cc6ccccc6)c5c4)CC3)cc2)cn1` [Example 98, (R)-1-(5-(4-(4-(1-benzyl-1H-benzo [d]imidazol-6-yl)piperazin-1-yl)phenyl)pyridin-2-yl)-2-(2,4-difluorophenyl)-1,1-difluoro-3-(1H-tetrazol-1-yl) propan-2-ol], the minimum inhibitory concentration (MIC) in the experiment on A. fumigatus (setting [1]) was above 8 µg/mL; with C. albicans (ATCC 90028) (setting [2]), 0.01 to 0.1 µg/mL (≈ 0.0139 to 0.139 µM).
The like results for `CC(O)C(F)(F)c1ccc(N2CCN(c3ccc(-c4ccc(C(F)(F)[C@](O)(Cn5cnnn5)c5ccc(F)cc5F)nc4)cc3)CC2)cn1` (stereo partly drawn) [Example 99, (2R)-1-(5-(4-(4-(6-(1,1-difluoro-2-hydroxypropyl)pyridin-3-yl)piperazin-1-yl)phenyl)pyridin-2-yl)-2-(2,4-difluorophenyl)-1,1-difluoro-3-(1H-tetrazol-1-yl) propan-2-ol] were, in that order, 0.25 to 1 µg/mL (≈ 0.365 to 1.46 µM) and 0.0078 to 0.01 µg/mL (≈ 0.0114 to 0.0146 µM).
Turning to `OC(c1cc(F)cc(N2CCN(c3ccc(-c4ccc(C(F)(F)[C@](O)(Cn5cnnn5)c5ccc(F)cc5F)nc4)cc3)CC2)c1)C(F)(F)F` (stereo partly drawn) [Example 100, (2R)-2-(2,4-difluorophenyl)-1,1-difluoro-1-(5-(4-(4-(3-fluoro-5-(2,2,2-trifluoro-1-hydroxyethyl)phenyl)piperazin-1-yl)phenyl)pyridin-2-yl)-3-(1H-tetrazol-1-yl) propan-2-ol], the minimum inhibitory concentration (MIC) is 0.25 to 1 µg/mL (≈ 0.354 to 1.42 µM) with A. fumigatus (setting [1]) and 0.0078 to 0.01 µg/mL (≈ 0.0111 to 0.0142 µM) in the experiment on C. albicans (ATCC 90028) (setting [2]).
With `CC(C)C(C(C)O)n1ncn(-c2ccc(N3CCN(c4ccc(-c5ccc(C(F)(F)[C@](O)(Cn6cnnn6)c6ccc(F)cc6F)nc5)cc4)CC3)cc2)c1=O` (stereo partly drawn) [Example 103, 4-(4-(4-(4-(6-((R)-2-(2,4-difluorophenyl)-1,1-difluoro-2-hydroxy-3-(1H-tetrazol-1-yl)propyl)pyridin-3-yl)phenyl)piperazin-1-yl)phenyl)-2-(2-hydroxy-4-methylpentan-3-yl)-2,4-dihydro-3H-1,2,4-triazol-3-one], the figures for the MIC in the experiment on A. fumigatus (setting [1]) and with C. albicans (ATCC 90028) (setting [2]) were 0.062 to 0.25 µg/mL (≈ 0.0802 to 0.323 µM) and 0.0078 to 0.01 µg/mL (≈ 0.0101 to 0.0129 µM), respectively.
The like results for `OC(c1cc(N2CCN(c3ccc(-c4ccc(C(F)(F)[C@](O)(Cn5cnnn5)c5ccc(F)cc5F)nc4)cc3)CC2)ccn1)C(F)(F)F` (stereo partly drawn) [Example 104, (2R)-2-(2,4-difluorophenyl)-1,1-difluoro-3-(1H-tetrazol-1-yl)-1-(5-(4-(4-(2-(2,2,2-trifluoro-1-hydroxyethyl)pyridin-4-yl)piperazin-1-yl)phenyl)pyridin-2-yl)propan-2-ol] were, in that order, 0.25 to 1 µg/mL (≈ 0.363 to 1.45 µM) and 0.0078 to 0.01 µg/mL (≈ 0.0113 to 0.0145 µM).
Take `O=C(Nc1ccc(N2CCN(c3ccc(-c4ccc(C(F)(F)[C@](O)(Cn5cnnn5)c5ccc(F)cc5F)nc4)cc3)CC2)cc1)C(O)CC(F)(F)F` (stereo partly drawn) [Example 105, N-(4-(4-(4-(6-((R)-2-(2,4-difluorophenyl)-1,1-difluoro-2-hydroxy-3-(1H-tetrazol-1-yl)propyl)pyridin-3-yl)phenyl)piperazin-1-yl)phenyl)-4,4,4-trifluoro-2-hydroxybutanamide]: the MIC in the experiment with A. fumigatus (setting [1]) is above 8 µg/mL; in the experiment with C. albicans (ATCC 90028) (setting [2]), 0.0078 to 0.01 µg/mL (≈ 0.0105 to 0.0134 µM).
For `OC(c1cn(-c2ccc(N3CCN(c4ccc(-c5ccc(C(F)(F)[C@](O)(Cn6cnnn6)c6ccc(F)cc6F)nc5)cc4)CC3)cn2)nn1)C(F)(F)F` (stereo partly drawn) [Example 111, (2R)-2-(2,4-difluorophenyl)-1,1-difluoro-3-(1H-tetrazol-1-yl)-1-(5-(4-(4-(6-(4-(2,2,2-trifluoro-1-hydroxyethyl)-1H-1,2,3-triazol-1-yl)pyridin-3-yl)piperazin-1-yl)phenyl)pyridin-2-yl) propan-2-ol] the same measures were 0.25 to 1 µg/mL (≈ 0.331 to 1.32 µM) and 0.0078 to 0.01 µg/mL (≈ 0.0103 to 0.0132 µM).
For `CC(C)(C)CC(O)c1ccc(N2CCN(c3ccc(-c4ccc(C(F)(F)[C@](O)(Cn5cnnn5)c5ccc(F)cc5F)nc4)cc3)CC2)cn1` (stereo partly drawn) [Example 118, 1-(5-(4-(4-(6-((R)-2-(2,4-difluorophenyl)-1,1-difluoro-2-hydroxy-3-(1H-tetrazol-1-yl)propyl)pyridin-3-yl)phenyl)piperazin-1-yl)pyridin-2-yl)-3,3-dimethylbutan-1-ol] the same measures were 0.25 to 1 µg/mL (≈ 0.362 to 1.45 µM) and 0.0078 to 0.01 µg/mL (≈ 0.0113 to 0.0145 µM).
